Results reported in US12583846B2, “2H-benzopyran derivatives as CRAC inhibitors” (CISEN PHARMACEUTICAL CO., LTD, priority 2019, dated 2026).
pIC50: −log10 of the molar value. One block for each molecule: values may come before it.

What was measured:
[1] = tested on: IL-2; assay: Inhibitory activity on cytokines: IL-2 in supernatant of anti-CD3/anti-CD28 stimulated hPBMC by CBA method; type: cell-based; details: Homo sapiens, 48 h, anti-CD3/anti-CD28, 2 days incubation
Description: (§1) Human peripheral blood mononuclear cells (hPBMC); supplier: HemaCare; Article Number: PB009C-2
(§2) 96-well plates were coated with 5 μg/mL anti-human CD3 antibody (in DPBS) at […] overnight at 4° C.
(§3) PBMC were removed from liquid nitrogen and immediately placed in a 37° C. water bath for recovery. To a 15 mL centrifuge tube, 5 mL culture medium (RPMI1640 culture medium+10% fetal bovine serum+1% non-essential amino acids+1% penicillin streptomycin+0.05 mM β-mercaptoethanol) was added, and the cell suspension was pipetted to the centrifuge tube, and the mixture was centrifuged at 320 g for 5 minutes. The cells were resuspended with culture medium and counted, and the cell concentration was then adjusted to 5×10^5 cells/mL with the culture medium, To the cell suspension was added anti-human CD28 antibody (final concentration 2 μg/mL), and the mixture was inoculated into a 96-well plate at 200 μL/well.
(§4) Compounds were prepared at the desired concentration and added to the cells. The mixture was incubated at 37° C., 5% CO2 for 2 days.
The standards were prepared according to the instructions of IL-2 and TNFα Flex Set kit. The supernatant of the cultured cells was diluted 5-fold with the buffer provided in the kit and added to a 96-well plate together with the standards. The plated was added with magnetic beads containing antibody from the kit, and incubated at room temperature for 1 hour. The fluorescein PE-labeled secondary antibody in the kit was added and incubated at room temperature for 2 hours. The average fluorescence intensity of the PE channel was detected by flow cytometry. Based on the average fluorescence intensity of the standards, the contents of IL-2 and TNF-α of the samples were calculated.

[2] = Pharmacokinetic evaluation experiment in mice (intravenous or intraperitoneal injection of compound 6); type: in vivo, C57BL/6 mice
Description: Purpose of the experiment: male C57BL/6 mice were used as test animals, and the plasma drug concentrations of the test compounds were determined by LC/MS/MS at different time points after intravenous or intraperitoneal injection. The pharmacokinetic behavior of the test compound in mice was studied to evaluate its pharmacokinetic characteristics.
Drug preparation: an appropriate amount of sample was weighed to prepare 0.3 mg/mL or 0.5 mg/mL clear solution with 40% PEG400+20% Solutol+40% H2O (volume ratio).
Administration scheme: two healthy male C57BL/6 mice purchased from Beijing Vital River Laboratory Animal Technology Co., Ltd. was on a normal diet. The intravenous injection group was administered with 0.5 mg/mL solution, with a dose volume of 2 mL/kg and a dose of 1 mg/kg. The intraperitoneal injection group was administered with 0.3 mg/mL solution, with a volume of 10 mL/kg and a dose of 3 mg/kg.
(§5) Procedure: after animal administration, 25 μL of blood was collected at 0.083, 0.25, 0.5, 1, 2, 4, 8, 12, and 24 hours, respectively and placed in a commercial anticoagulative tube pre-loaded with EDTA-K2. The tubes were centrifuged for 10 minutes to separate plasma and stored at −60° C. The content of target compound in plasma samples was determined by LC/MS/MS.

[3] = Pharmacokinetic evaluation in mice (intravenous administration of compound 18 or 22, 50 mg/kg); type: in vivo, C57BL/6 mice; details: for elimination in plasma after administration (in words): intravenous 50 mg/kg
Description: Purpose of the experiment: male C57BL/6 mice were used as test animals, and the LC/MS/MS method was applied to determine the plasma drug concentrations of the compounds at different time points after intravenous administration. The pharmacokinetic behavior of the compounds in mice was studied, and their pharmacokinetic characteristics were evaluated.
Drug preparation: an appropriate amount of sample was weighed to prepare 5 mg/mL of clear solution with sterile normal saline.
Administration scheme: two healthy male C57BL/6 mice purchased from Beijing Vital River Laboratory Animal Technology Co., Ltd. was on a normal diet, with a volume of 10 mL/kg and a dose of 50 mg/kg.
as §5, with “the corresponding compounds” for “target compound”

[4] = tested on: bombesin-induced acute pancreatitis model in mice; assay: Pharmacodynamic test of bombesin-induced acute pancreatitis in mice (compound 6); type: in vivo, C57BL/6 mice; details: compound 6 intraperitoneal 20 mg/kg; bombesin 50 μg/kg x 7; FIG. 2
Description: Purpose of the experiment: male C57BL/6 mice were used as test animals, and acute pancreatitis was induced by intraperitoneal injection of bombesin. The efficacy of compound 6 on acute pancreatitis was studied.
Drug preparation: an appropriate amount of sample was weighed, and compound 6 was prepared to a 4 mg/mL clear solution with 40% PEG-400+20% Solutol+40%+H2O (v/v).
Experiment scheme: healthy male C57BL/6 mice were injected with bombesin intraperitoneally to induce pancreatitis model, at a dose of 50 μg/kg each time, with 7 injections at an interval of 1 hour. One hour after the seventh injection of bombesin, serum was taken and the levels of amylase and lipase were measured. Compound 6 was administered by intraperitoneal injection at a dose of 20 mg/kg.
Experimental results: see FIG. 2. The levels of plasma amylase (AMY) and lipase (LPS) were analyzed by one-way ANOVA, * * indicates significant difference with G1 (P<0.01), * indicates significant difference with G1 (P<0.05).

[5] = tested on: TNF-α; assay: Inhibitory activity on cytokines: TNFα in supernatant of anti-CD3/anti-CD28 stimulated hPBMC by CBA method; type: cell-based; details: Homo sapiens, 48 h, anti-CD3/anti-CD28, 2 days incubation
Description: as §1, §2, §3, §4
The standards were prepared according to the instructions of IL-2 and TNFα Flex Set kit. […] The average fluorescence intensity of the PE channel was detected by flow cytometry. Based on the average fluorescence intensity of the standards, the contents of IL-2 and TNF-α of the samples were calculated.

[6] = Thermodynamic solubility test; type: physicochemical; details: for solubility in water (in words): conclusion of the thermodynamic solubility test
Description: About 2 mg of test compound was weighed into a whatman vial, and 450 μL of phosphate buffer (50 mM, pH=7.4) was added. The stopper of whatman vial was pressed to near the liquid level so that the filter membrane in the stopper is in uniform contact with the liquid level. The vial was shaken well up and down on vortex for two minutes, and the dissolution of test compound in the whatman vial was recorded. The whatman vial was shaken in a shaker at ambient temperature for 24 hours at a rotational speed of 600 r/min. The stopper of whatman vial was slowly pressed to the lowermost part to obtain the supernatant. […] A linear solution (3 standard solutions, 1, 20, 200 μM, n=1) was prepared with diluent. The supernatant was taken out, and 10 μL of the supernatant was accurately taken out and diluted 100 times. The obtained diluent and stock solution and linear solution were simultaneously put into HPLC for detection and analysis, and the results were calculated by an external standard method according to peak area and dilution factor.

[7] = male, C57BL/6, mouse, plasma, intravenous injection, 1 mg/kg
[8] = male, C57BL/6, mouse, plasma, ip, intraperitoneal injection, 3 mg/kg
[9] = administered compound itself in plasma, 50 mg/kg intravenous, mice, 50 mg/kg
[10] = male, C57BL/6, mouse, plasma, iv, 50 mg/kg, administered compound itself in plasma, 50 mg/kg intravenous, mice

- pIC50 [1]: 6.55
SMILES: O=C(Nc1cnc(-c2cc3oc(C4CC4)nc3cc2Cl)cn1)c1c(F)cccc1F [Compound 4]

- pIC50 [1]: 7.20
- bioavailability ([2]; male, C57BL/6, mouse, plasma, intraperitoneal 3 mg/kg vs intravenous 1 mg/kg): 125%
- AUC(0-t) [2, 7]: 15.6 µM·h
- clearance [2, 7]: 2.05 mL/min/kg
- half-life [2, 7]: 10.6 h
- Vd ([2]; male, C57BL/6, mouse, plasma, intravenous injection, 1 mg/kg, read-out: Vdss): 1.77 L/kg
- AUC(0-t) [2, 8]: 62.7 µM·h
- Cmax [2, 8]: 5.53 µM
- Tmax [2, 8]: 2 h
- formation of compound 6 in plasma (in words) ([3]; from 5 min of administration of compound 18 or 22, mice): a large amount
- pIC50 [5]: 6.86
SMILES: O=C(Nc1cnc(-c2cc3oc(C4CC4)cc3cc2Cl)cn1)c1c(F)cccc1F [Compound 6]
- plasma exposure and pharmacokinetic properties (in words) ([2]; intravenous and intraperitoneal routes): higher plasma exposure and desirable pharmacokinetic properties
- serum amylase (AMY) level [4]: significantly reduce
- serum lipase (LPS) level [4]: significantly reduce

- pIC50 [1]: 6.76
- pIC50 [5]: 6.48
SMILES: O=C(Nc1cnc(-c2cc3oc(C4COC4)cc3cc2Cl)cn1)c1c(F)cccc1F [Compound 17]

- solubility thermodynamic at 24 h ([6]; aqueous buffer, thermodynamic from solid, phosphate buffer 50 mM, pH 7.4, 24 hours, ambient temperature): > 200 µM
- solubility in water (in words) [6]: very good
- DNAUC0-last (exposure normalized to molar dose) [3, 9]: 0.69 µM·h
- AUC(0-t) [3, 10]: 57.2 µM·h
- clearance [3, 10]: 25.1 mL/min/kg
- half-life [3, 10]: 2.49 h
- Vd ([3]; male, C57BL/6, mouse, plasma, iv, 50 mg/kg, administered compound itself in plasma, 50 mg/kg intravenous, mice, read-out: Vdss): 0.84 L/kg
- elimination in plasma after administration (in words) ([3]; mice): rapidly eliminated
SMILES: O=C(c1c(F)cccc1F)N(COP(=O)(O)O)c1cnc(-c2cc3oc(C4CC4)cc3cc2Cl)cn1 [Compound 18]

- solubility in water (in words) [6]: very good
- AUC0-last [3, 9]: 37.1 µM·h
- CL [3, 9]: 28.9 mL/min/kg
- DNAUC0-last (exposure normalized to molar dose) [3, 9]: 0.58 µM·h
- T1/2 [3, 9]: 2.53 h
- Vdss [3, 9]: 1.05 L/kg
- elimination in plasma after administration (in words) ([3]; mice): rapidly eliminated
SMILES: O=C(c1c(F)cccc1F)N(COP(=O)(O)O)c1cnc(-c2cc3oc(C4CC4)cc3cc2Cl)cn1 [Compound 22]

- solubility in water (in words) [6]: very good
SMILES: O=C(c1c(F)cccc1F)N(COP(=O)(O)O)c1cnc(-c2cc3oc(C4CC4)cc3cc2Cl)cn1 [Compound 23]
